Measured values taken from US11780868B1, “Homoleptic metal coordination complexes as antifungal agents” (King Abdulaziz University, priority 2023, dated 2023).

Key:
[1] = test system: cytochrome c oxidase; experiment: Cytochrome c oxidase activity assay; type: cell-based
Description: To examine the effect of C1 on the induction of cellular apoptosis in C. albicans cells, crucial apoptotic markers were observed. For this purpose, C. albicans 4251 and C. albicans 5112 cells were subjected to protoplast preparation by utilizing a method described previously by Srivastava et al. in 2020 through their research study. Briefly, cells were grown overnight and were exposed for 4 h with different concentrations of C1 (0.5×MIC and 1×MIC) and H2O2 (positive control) whereas, untreated cells were used as a negative control. Later on, the cells were washed and incubated for 10 min at room temperature in protoplast buffer-1 (1M sorbitol, 0.05M tris base, 0.01M MgCl2, 0.03M DTT, pH 7.4). The cells were spun at 1500 rpm for 5 min and the pellet was resuspended in protoplast buffer-2 (1M sorbitol, 0.05M tris base, 0.01M MgCl2, 0.001M DTT, pH 7.4) supplemented with lyticase enzyme (1 μg/mL) and incubated for 1 h at room temperature. Afterwards, the cell suspension was again centrifuged, and the pellet was resuspended and incubated for 20 min at room temperature in protoplast buffer-3 (1M sorbitol, 0.05M tris base, 0.01M MgCl2, pH 7.4). A final washing (1500 rpm for 5 min) was given to the cells and the pellet consisting of C. albicans protoplasts was resuspended in fresh PBS and was stored at 4° C. until further use.
The role of C1 in the modulating cytochrome c oxidase activity in C. albicans was investigated. The mitochondria from C. albicans 4251 and C. albicans 5112 were isolated using Yeast Mitochondria Isolation Kit—MITOISO3 (Sigma-Aldrich St. Louis, MO, U.S.A.) and then the Cytochrome c oxidase assay kit (ScienCell, Cat. No. 8278, CA, USA) was used to detect the cytochrome c oxidase activity in the cells following the manufacturer's instructions. Briefly, the C. albicans protoplasts were homogenized and the homogenate was resuspended and centrifuged in storage buffer (1×, 1 mL) at 6,500×g at 4° C. (10 min). The supernatant was discarded and resuspended in 200 μL of storage buffer (1×). The TCA Lowry method was utilized for determining the protein concentration present in the sample. Later on, the estimation of cytochrome c oxidase activity was done by preparing an assay mixture (Assay Buffer, 940 μL; n-dodecyl β-D-maltoside solution, 10 μL; mitochondrial protein, 2 μg) in a cuvette and then adding cytochrome c substrate solution (50 μL, provided in the kit) to it. Any change in absorbance was measured on a kinetic program (550 nm; every 30 seconds with an interval of 5 seconds) by using a spectrophotometer (UV-1800, Shimadzu Corporation, Japan).

[2] = test system: Flz resistant strains of C. albicans; experiment: Broth microdilution MIC/MFC, range over strains; type: cell-based, Candida albicans
Description: (§1) In this work, nine strains of C. albicans procured from Charlotte Maxeke Johannesburg Academic Hospital under ethical clearance number M000402 were employed (Table 1). All the C. albicans strains were preserved at −70° C. deep freezer in 50% (v/v) anhydrous glycerol (Sigma-Aldrich St. Louis, MO, U.S.A.). For conducting experiments, cultures were revived in Sabouraud Dextrose broth (SDB; Merck, Germany) at 37° C. and 120 rpm for 24 h. Additionally, the RPMI 1640 medium and MOPS (Sigma-Aldrich, USA) were prepared as described by the Clinical and Laboratory Standards Institute (CLSI).
(§2) The activity of C1 against Candida species (n=9) was first estimated in terms of minimum inhibitory concentration (MIC) and minimum fungicidal concentration (MFC). […] Briefly, stock solutions of Flz (used as reference; Sigma-Aldrich St. Louis, MO, U.S.A.) and the synthesized compound was prepared in 1% dimethyl sulfoxide (DMSO; Sigma-Aldrich St. Louis, MO, U.S.A.) and the test concentrations were formulated in RPMI 1640-MOPS medium. […] Growth was quantified by reading the optical density at 620 nm in a UV-1800 SHIMADZU spectrophotometer (Shimadzu Corporation, Japan). The MIC was determined as the lowest concentration that inhibited the growth of Candida strains. […]

[3] = test system: Flz susceptible strains of C. albicans; experiment: Broth microdilution MIC/MFC, range over strains; type: cell-based, Candida albicans
Description: as §1, §2

**Q.** `Brc1ccc([O][Co][O]c2ccc(Br)cc2C=Nc2ccc3c(c2)OCCO3)c(C=Nc2ccc3c(c2)OCCO3)c1` [Complex C1, [Co(L)2]] was tested. Which “average percent decrease in cytochrome c oxidase activity” value (“average percent decrease” below) ([1]; Flz resistant strain (C. albicans 5112), 0.5×MIC) did it give?
**A.** The value was 14.2%.

**Q.** What about the “average percent decrease” value ([1]; Flz resistant strain (C. albicans 5112), 1×MIC) of the same molecule?
**A.** The value was 47.53%.

**Q.** What about the “average percent decrease” value ([1]; Flz sensitive strain (C. albicans 4251), 0.5×MIC) of the same molecule?
**A.** Its value is 22.61%.

**Q.** What about the “average percent decrease” value ([1]; Flz sensitive strain (C. albicans 4251), 1×MIC) of the same molecule?
**A.** The value was 51.3%.

**Q.** And the MIC value range [2]?
**A.** The MIC value range was 9.76 to 19.53 µg/mL.

**Q.** And the MIC value range [3]?
**A.** Its MIC value range is 1.22 to 4.88 µg/mL.
